Source: US20240058288A1, “DRUG COCKTAIL FOR TREATMENT OF PARKINSON'S DISEASE, LEWY BODY DISEASE AND MULTIPLE SYSTEM ATROPHY” (ALETA NEUROSCIENCE, LLC, priority 2021, published 2024)
Entries after “also recorded” stand apart in the source; their conditions may differ. Like-named read-outs stand apart in the source and are kept apart here.

Legend:
[1] = test system: human dopaminergic neurons (iCell DopaNeurons); assay: MPP+-induced neurotoxicity: neurite outgrowth (neurite length, branch points) of iCell DopaNeurons, Incucyte; assay type: cell-based
Source text: (§1) We conducted an in vitro study of the drugs in Table 1 to evaluate the neuroprotective effects of 44 conditions of treatment (Table 2, experiments 1-41; 51-53) against MPP+-induced neurodegeneration toxicity on human dopaminergic neurons (iCell® DopaNeurons: iPS cell-derived human midbrain floorplate dopaminergic neurons). Further combinations (Table 2, experiments 42-50 and Table 3) are also disclosed.
iCell DOPA neurons are neural floor plate-derived midbrain dopaminergic neurons generated from human induced pluripotent stem cells (iPSCs). Dopaminergic neurons, specifically those located in the floor plate-derived midbrain are implicated in neurological disorders such as Parkinson's disease, MSA and DLBD among others. Thus iCell DopaNeurons provide a highly relevant in vitro model to investigate these types of pathologies (42, 43). The iCellDopa neurons were supplied from FUJIFILM Cellular Dynamics.
(§2) Three different measurements were made in the experiments. 1. Neurite length in mm is a measure of increase in dendrite length of neurons. […] 2. neurite branching is measure of dendrite branching. […] 3. Cytolysis of the cells is a measure of cell death. […] Experimental conditions were measured relative to the results of healthy cells in the studies.
(§3) Procedure. iCell DOPA neurons were thawed and cultured following the provider's instructions in Brainphys medium+provided supplements+1% N2 supplement (Stemcell Technologies)+penicillin/streptomycin+Laminin. They were plated at 20000 cells per well of a 384 well plate (pre-coated with poly-D-lysine and Laminin) in 70 μL of growth medium. Cells were incubated at 37° C./5% CO2 in a humidified cell culture incubator. Half of the culture medium was changed twice a week.
(§4) MPP+-induced neurotoxicity: 24 hours after neuronal plating, half of the medium was removed and the test compounds were applied with MPP+ treatment, both concentrated at 4×, were added to the wells. For each condition, six aliquots were added, corresponding to columns A-F in Table 2. Except for the NT/NT row, in each row, either the compound indicated dissolved in its vehicle noted in Table 1 was added, or only a vehicle was added as indicated. Column F is an indicator of whether MPP+ was added. If not, only the medium was added.
(§5) For the evaluation of conditions 1-28, Neurite outgrowth was followed for subsequent 48 hours using an Incucyte Zoom platform with one phase contrast image every 4 hours, using a 20× objective. After 48 hours, the medium containing test compounds and MPP+ was removed and replaced by fresh medium containing a fluorescent cytolysis marker (red fluorescence) and a live cell marker (green fluorescence). For the evaluation of conditions 29-53, Neurite outgrowth was followed similarly for subsequent 72 hours after MPP+ was added.
Each condition 1-41 and 51-53 was repeated in 8 wells of a 384 well plate, that is, each test condition studied in Table 2 was repeated eight times. NT/NT were cells in the standard medium only. Control/NT are the cells in the vehicle (as described above), with and without MPP+.
Assay endpoints and data analysis. Phase contrast images were analyzed at each time point to determine the neurite length and number of branch points per mm^2. Kinetic data was plotted and kinetics were normalized by subtracting the value of the first data point (at time of treatment), allowing to measure changes in neurite outgrowth only from the onset of the treatment, starting at zero. Area Under Curve (AUC) of kinetic data was obtained and used for plotting compound's effects and perform statistical analyzes.
(§6) Statistical analysis. We used one-way ANOVA followed by Bonferroni's multiple comparisons test.

[2] = test system: human dopaminergic neurons (iCell DopaNeurons); assay: MPP+-induced neurotoxicity: cytolysis of iCell DopaNeurons; assay type: cell-based
Source text: as §1, §2, §3, §4, §5
Data was normalized to control conditions as there is basal cytolysis in the cell culture after thawing.
Fluorescently immuno-stained cells were imaged on a high content imaging platform. Individual segmentation of cells was performed by image analysis of the MAP2 and NeuN staining. The number of neurons and the neurite length were measured. The percentage of cytolyzed cells was also calculated.
as §6

IL-6 = assay: LPS/ATP-induced IL-6 secretion by human microglia cells (Luminex); assay type: cell-based
Source text: (§7) In addition to the studies discussed above assessing activity of combinations of drugs on MPP+-induced neurodegeneration toxicity on human dopaminergic neurons and measuring neuronal growth and neurite branching, we also assessed combinations of drugs in reducing lipopolysaccharide (LPS, from E. coli)-induced neuroinflammation.
(§8) Lipopolysaccharides are important outer membrane components of gram-negative bacteria such as E. coli and salmonella. They are large amphipathic glycoconjugates that typically consist of a lipid domain (hydrophobic) attached to a core oligosaccharide and a distal polysaccharide. LPS binds to Toll-like receptor 4 (TLR4) and activates microglia (51) which in turn increases secretion of pro-inflammatory cytokines such as interleukin-6 (IL-6), tumor necrosis factor-α (TNF-α), and CXCL1/GROα.
(§9) Microglia cells were obtained from an iCell® Microglia kit, 01279 (Catalogue N° R1131) from FUJIFILM Cellular Dynamics. We followed the manufacturer's protocol for activation of the microglial cells with LPS/ATP to subsequently measure the effect of the study drugs on pro-inflammatory cytokines IL-6, TNF-α and CXCL1/GROα.
(§10) All cell culture procedures were performed in aseptic conditions, under a laminar flow hood. Microglia were thawed and cultured following the provider's instructions. The microglia were plated at 50,000 cells per well of a Corning Primaria 96 well plate (Ref N° 353872) in 100 μL of growth medium. Cells were incubated at 37° C./5% CO2 in a humidified cell culture incubator.
(§11) Three days after cell plating, the test or reference substances (25 μL of solutions at 5×) were applied 1 hour before LPS and ATP stimulation.
(§12) One hour later, 12.5 μL of test or reference substances were added again at 2× concentrated followed by 12.5 μL of LPS at 12× concentration. Fifty microliters of ATP were introduced at 4× concentration, 5 h 30 min after incubation with LPS.
(§13) Six hours after LPS incubation, the supernatant of each well was collected and centrifugated at 1000 g for 10 minutes to remove the cells and debris.
(§14) Fifty microliters of supernatant from NT and LPS+ATP-treated wells were used to determine cytokine secretion (IL-6, TNF-α, CXCL1/GROα) by Luminex platform according to the provider's instructions. Samples were diluted prior to the assay to fit within the standard range if needed. Three wells were tested per each condition (Table 10). Cytokines levels in the supernatant were expressed in pg/mL. The data was analyzed using a One-Way ANOVA followed by Bonferroni test.

TNF-α = assay: LPS/ATP-induced TNF-α secretion by human microglia cells (Luminex); assay type: cell-based
Source text: as §7, §8, §9, §10, §11, §12, §13, §14

CXCL1/GROα = assay: LPS/ATP-induced CXCL1/GROα secretion by human microglia cells (Luminex); assay type: cell-based; details: LPS 100 ng/mL + ATP 5 mM, 6 h after LPS, TAK-242 2 μM, MCC950 10 μM
Source text: as §7, §8, §9, §10, §11, §12, §13, §14

[3] = chronic PD and DLBD mouse models; cited from earlier work
IL-1β = assay: LPS/ATP-induced IL-1β in human microglia cells; assay type: cell-based; details: as compared with […] distilled water in presence of LPS and ATP
[4] = LPS 100 ng/mL + ATP 5 mM, 6 h after LPS, TAK-242 2 μM, MCC950 10 μM
[5] = LPS 100 ng/mL + ATP 5 mM, 6 h after LPS, three wells, TAK-242 2 μM, MCC950 10 μM
[6] = as compared with […] distilled water in presence of LPS and ATP

**Q.** Which “Neurite length data, plate 1, Mean” value ([1]; MPP+ 100 μM, Table 6.1 (FIG. 6A), followed 72 hours, PCI 30 μM) does the source give for COc1cc2nc(N3CCN(C(=O)C4CCCO4)CC3)nc(N)c2cc1OC (stereo not shown) [TZ, Terazosin] here?
**A.** Its value is 1102.2 mm/mm^2.

**Q.** What about the “Neurite Branching Data, Plate 1, Mean ± S.D.” value ([1]; MPP+ 100 μM, Table 7.1 (FIG. 6B), followed 72 hours, PCI 30 μM) of the same compound?
**A.** The value was 31244.4 ± 12478.9 per mm^2.

**Q.** What about the “effects on neurite outgrowth” value ([1]; MPP+ 100 μM, vs MPP+ alone) of the same compound?
**A.** The value was “no significant effects”.

**Q.** And the “Cytolysis, %, Plate 1, Mean ± S.D.” value ([2]; MPP+ 100 μM, Table 8.1 (FIG. 6C), PCI 30 μM)?
**A.** The value was 72.78 ± 2.29%.

**Q.** For Sodium Phenylbutyrate [PBA], which “Neurite Branching Data, Plate 1, Mean ± S.D.” value [1] is on record?
**A.** Its value is 46742.8 ± 7107.5 per mm^2.

**Q.** What about the “Neurite length - Baseline-corrected AUC (0-72 h), Mean” value [1] of the same compound?
**A.** Its value is 853.7 mm/mm^2.

**Q.** And the “Neurite length data, plate 1, Mean” value [1]?
**A.** Its value is 1681.1 mm/mm^2.

**Q.** And the “Number of branch points per mm^2 - Baseline-corrected AUC (0-72 h), Mean” value [1]?
**A.** Its value is 41712.8 per mm^2.

**Q.** And the “number of branches as compared with MPP+ alone” value [1]?
**A.** Its value is “significantly increased”.

**Q.** And the “number of branches increased as compared with MPP+ alone (control/MPP+)” value [1]?
**A.** The value was 89%.

**Q.** And the “protective effect against MPP+” value [1]?
**A.** Its value is “showed the protective effect, but to a substantially lesser effect than when combined; also recorded: showed protective effect, but it was not statistically significant”.

**Q.** What about the “Cytolysis, %, Plate 1, Mean ± S.D.” value [2] of the same compound?
**A.** The value was 72.06 ± 1.77%.

**Q.** And the “IL-6 in supernatant, Replicate 1” value (IL-6; [4])?
**A.** Its value is 396.23 pg/mL.

**Q.** And the “IL-6 in supernatant, Replicate 2” value (IL-6; [4])?
**A.** The value was 363.94 pg/mL.

**Q.** What about the “IL-6 in supernatant, Replicate 3” value (IL-6; [4]) of the same compound?
**A.** The value was 305.53 pg/mL.

**Q.** And the “IL-6 in supernatant, Mean ± S.D.” value (IL-6; [5])?
**A.** The value was 355.23 ± 45.97 pg/mL.

**Q.** What about the “anti-inflammatory effect on activated microglia, all three cytokines” value (IL-6; LPS and ATP, IL-6, TNF-α, GROα together (FIG. 8, 9, 10)) of the same compound?
**A.** The value was “Anti-inflammatory effects of the individual drugs were observed”.

**Q.** And the “decrease of IL-6 concentration” value (IL-6; [6])?
**A.** The value was 49%.

**Q.** What about the “TNF-α in supernatant, Replicate 1” value (TNF-α; [4]) of the same compound?
**A.** The value was 32.67 pg/mL.

**Q.** What about the “TNF-α in supernatant, Replicate 2” value (TNF-α; [4]) of the same compound?
**A.** The value was 35.47 pg/mL.

**Q.** And the “TNF-α in supernatant, Replicate 3” value (TNF-α; [4])?
**A.** Its value is 32.24 pg/mL.

**Q.** And the “TNF-α in supernatant, Mean ± S.D.” value (TNF-α; [5])?
**A.** The value was 33.46 ± 1.75 pg/mL.

**Q.** And the “decrease of TNF-α concentration” value (TNF-α; [6])?
**A.** Its value is 44%.

**Q.** And the “CXCL1/GROα in supernatant, Replicate 1” value (CXCL1/GROα)?
**A.** Its value is 627.29 pg/mL.

**Q.** What about the “CXCL1/GROα in supernatant, Replicate 2” value (CXCL1/GROα) of the same compound?
**A.** Its value is 383.60 pg/mL.

**Q.** What about the “CXCL1/GROα in supernatant, Replicate 3” value (CXCL1/GROα) of the same compound?
**A.** The value was 476.49 pg/mL.

**Q.** What about the “CXCL1/GROα in supernatant, Mean ± S.D.” value (CXCL1/GROα; three wells) of the same compound?
**A.** The value was 495.79 ± 122.99 pg/mL.

**Q.** And the disease progression [3]?
**A.** Its disease progression is “halted the disease progression”.

**Q.** Which results are given for CC(C)(O)c1coc(S(=O)(=O)NC(=O)Nc2c3c(cc4c2CCC4)CCC3)c1 [MCC950]?
**A.** concentration of IL-6 (IL-6; [6]): significantly decreased; concentration of TNF-α (TNF-α; [6]): significantly decreased; concentration of IL-1β (IL-1β): significantly decreased

**Q.** For CC(C)[C@H](NC(=O)c1ccc2ccccc2n1)C(=O)N[C@@H](CC(=O)O)C(=O)COc1c(F)cccc1F [PCI/MPP+, Q-VD-OPh], which “Neurite Branching Data, Plate 1, Mean ± S.D.” value [1] is on record?
**A.** The value was 38456.3 ± 11570.7 per mm^2.

**Q.** And the “Neurite Branching Data, Plate 2, Mean ± S.D.” value [1]?
**A.** Its value is 52610.1 ± 16660.1 per mm^2.

**Q.** And the “Neurite length data, plate 1, Mean” value [1]?
**A.** Its value is 1301.0 mm/mm^2.

**Q.** What about the “Neurite length, plate 2, Mean ± S.D.” value [1] of the same compound?
**A.** The value was 1430.1 ± 321.7 mm/mm^2.

**Q.** What about the “Cytolysis, %, Plate 1, Mean ± S.D.” value [2] of the same compound?
**A.** Its value is 65.56 ± 1.89%.

**Q.** What about the “Cytolysis, %, Plate 2, Mean ± S.D.” value [2] of the same compound?
**A.** Its value is 67.93 ± 3.52%.
